{"source": "paper PMC12010937", "about": "“Evaluation of FXR Activity in Pollutants Identified in Sewage Sludge and Subsequent in Vitro and in Vivo Characterization of Metabolic Effects of Triphenyl Phosphate” (Environmental Health Perspectives, 2025)", "key": {"[1]": {"molecular_target": "T1, human FXR-LBD (GST-FXR-LBD) (Homo sapiens, UniProt Q96RI1)", "T1 construct": "the human FXR-LBD (residues 234–472) was expressed as a GST fusion protein GST-FXR-LBD; made in house; host or cells: E. coli BL21(DE3)", "T1 sequence (Q96RI1 234-472 isoform Q96RI1-2)": "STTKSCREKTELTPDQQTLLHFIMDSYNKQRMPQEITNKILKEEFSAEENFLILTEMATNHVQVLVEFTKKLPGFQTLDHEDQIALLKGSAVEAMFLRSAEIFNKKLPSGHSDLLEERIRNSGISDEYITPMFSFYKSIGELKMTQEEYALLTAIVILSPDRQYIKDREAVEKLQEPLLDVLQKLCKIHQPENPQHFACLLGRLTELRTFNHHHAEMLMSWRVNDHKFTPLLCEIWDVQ", "assay": "HTRF coactivator recruitment assay, agonist mode", "assay_type": "biochemical"}, "[2]": {"tested_on": "FXR target genes and ceramide synthesis genes in ileum", "assay": "qPCR of genes in mouse ileum", "assay_type": "in vivo, C57BL/6N mice", "protocol": "Male C57BL/6N mice (8 wk of age) were purchased from Beijing Vital River Laboratory Inc. and acclimated to the environment for 2 wk before they were used for experiments. The environment was maintained at 22°C, in a 12-h light/dark cycle with 50%–60% relative humidity and fed standard chow diets. Because the male mice are more sensitive to metabolic disease than female mice and the estrous cycle of female mice may induce variability to the metabolic phenotypes,[50] only male mice were used in this study. Animals were randomly assigned to control or TPHP treatment groups (five mice per group). Mice were exposed to corn oil (control) purchased from Sigma-Aldrich (C8267) or TPHP (dissolved in corn oil) at 10mg/kg or 50mg/kg body weight (BW) by daily oral gavage for 35 d. The administered volume was 5mL/kg BW. The TPHP corn oil solutions for administration were prepared by dissolving the TPHP in corn oil, and the solutions were stored at −20°C and freshly prepared each week. BW was measured every other day during the dosing period. At the end of experiments, the mice were anesthetized with isoflurane, then blood was collected from the retro-orbital sinus via orbital puncture, and then the mice were euthanized by cervical dislocation. The liver was isolated, weighted, and divided into three fractions: one fraction was fixed with 4% neutral-buffered formalin for Oil Red staining; another fraction was frozen in liquid nitrogen and stored at −80°C for the BA targeted analysis, lipidomic analysis, and qPCR analysis; the remaining fraction was embedded with 3% carboxymethylcellulose (CMC) for MSI analysis. The ileum was also isolated, weighted, and stored at −80°C for the BA targeted analysis and qRT-PCR analysis. Cecal contents were collected from the cecum of mice for the 16S rRNA gene sequencing analysis. Animal study protocols were approved by the Animal Care and Use Committee of Peking University (approval number: Urban-WanY-1).\nTotal RNA was extracted from cells or mice tissues (liver and ileum) using the Total RNA kit (Tiangen Biotech), and concentration and quality of the RNA were determined using a SMA4000 Nanodrop spectrophotometer (Merinton). Then, the RNA was reverse transcribed into cDNA by HiScript III RT SuperMix for qPCR (Vazyme). In addition, qPCR was performed in the Mx3005P real-time PCR system (Agilent Technologies) with the ChamQ SYBR qPCR Master Mix Kit (Vazyme). Reactions were carried out for 5 min at 95°C, followed by 40 cycles of two-step PCR for 10 s at 95°C and 30 s at 60°C. The relative RNA expression levels of the target genes were normalized to GAPDH using the 2^−ΔΔCt method."}}, "note": "Several values for one entry are separate records, joined by “and”; a condition that tells them apart may be missing. Identical values can stand only once.", "data": [{"smiles": "O=P(Oc1ccccc1)(Oc1ccccc1)Oc1ccccc1", "note": "[TPHP, triphenyl phosphate]", "values": [{"measurement": "Relative activity, agonist mode", "setting": "[1]", "value": 0.00, "unit": "%"}, {"measurement": "Relative mRNA expression of Asbt in ileum", "setting": "[2]; TPHP-H: 50 mg/kg, 35 d", "value": "1.65 fold changes and 1.26 fold changes and 1.68 fold changes"}, {"measurement": "Relative mRNA expression of Cers2 in ileum", "setting": "[2]; TPHP-H: 50 mg/kg, 35 d", "value": "0.89 fold changes and 1.24 fold changes and 1.27 fold changes"}, {"measurement": "Relative mRNA expression of Cers4 in ileum", "setting": "[2]; TPHP-H: 50 mg/kg, 35 d", "value": "1.11 fold changes and 0.99 fold changes and 1.05 fold changes"}, {"measurement": "Relative mRNA expression of Cers6 in ileum", "setting": "[2]; TPHP-H: 50 mg/kg, 35 d", "value": "0.73 fold changes and 1.06 fold changes and 0.97 fold changes"}, {"measurement": "Relative mRNA expression of Degs1 in ileum", "setting": "[2]; TPHP-H: 50 mg/kg, 35 d", "value": "0.95 fold changes and 0.99 fold changes and 1.02 fold changes"}, {"measurement": "Relative mRNA expression of Degs2 in ileum", "setting": "[2]; TPHP-H: 50 mg/kg, 35 d", "value": "1.14 fold changes and 1.06 fold changes and 1.21 fold changes"}, {"measurement": "Relative mRNA expression of Ibabp in ileum", "setting": "[2]; TPHP-H: 50 mg/kg, 35 d", "value": "0.78 fold changes and 0.85 fold changes and 0.92 fold changes"}, {"measurement": "Relative mRNA expression of Ostα in ileum", "setting": "[2]; TPHP-H: 50 mg/kg, 35 d", "value": "0.84 fold changes and 0.68 fold changes and 0.79 fold changes"}, {"measurement": "Relative mRNA expression of Shp in ileum", "setting": "[2]; TPHP-H: 50 mg/kg, 35 d", "value": "0.10 fold changes and 0.18 fold changes and 0.19 fold changes"}, {"measurement": "Relative mRNA expression of Smpd2 in ileum", "setting": "[2]; TPHP-H: 50 mg/kg, 35 d", "value": "1.21 fold changes and 1.23 fold changes and 0.91 fold changes"}, {"measurement": "Relative mRNA expression of Smpd3 in ileum", "setting": "[2]; TPHP-H: 50 mg/kg, 35 d", "value": "0.99 fold changes and 0.93 fold changes and 1.32 fold changes"}, {"measurement": "Relative mRNA expression of Smpd4 in ileum", "setting": "[2]; TPHP-H: 50 mg/kg, 35 d", "value": "0.86 fold changes and 0.81 fold changes and 0.93 fold changes"}, {"measurement": "Relative mRNA expression of Sptlc1 in ileum", "setting": "[2]; TPHP-H: 50 mg/kg, 35 d", "value": "1.12 fold changes and 0.98 fold changes and 0.80 fold changes"}, {"measurement": "Relative mRNA expression of Sptlc2 in ileum", "setting": "[2]; TPHP-H: 50 mg/kg, 35 d", "value": "1.09 fold changes and 1.01 fold changes and 0.85 fold changes"}, {"measurement": "Relative mRNA expression of Asbt in ileum", "setting": "[2]; TPHP-L: 10 mg/kg, 35 d", "value": "1.43 fold changes and 1.04 fold changes and 1.42 fold changes"}, {"measurement": "Relative mRNA expression of Cers2 in ileum", "setting": "[2]; TPHP-L: 10 mg/kg, 35 d", "value": "1.06 fold changes and 1.32 fold changes and 1.08 fold changes"}, {"measurement": "Relative mRNA expression of Cers4 in ileum", "setting": "[2]; TPHP-L: 10 mg/kg, 35 d", "value": "1.04 fold changes and 1.11 fold changes and 1.40 fold changes"}, {"measurement": "Relative mRNA expression of Cers6 in ileum", "setting": "[2]; TPHP-L: 10 mg/kg, 35 d", "value": "0.77 fold changes and 1.22 fold changes and 1.15 fold changes"}, {"measurement": "Relative mRNA expression of Degs1 in ileum", "setting": "[2]; TPHP-L: 10 mg/kg, 35 d", "value": "1.06 fold changes and 1.19 fold changes and 1.18 fold changes"}, {"measurement": "Relative mRNA expression of Degs2 in ileum", "setting": "[2]; TPHP-L: 10 mg/kg, 35 d", "value": "1.13 fold changes and 0.96 fold changes and 1.41 fold changes"}, {"measurement": "Relative mRNA expression of Fgf15 in ileum", "setting": "[2]; TPHP-L: 10 mg/kg, 35 d", "value": "0.80 fold changes and 0.54 fold changes and 0.50 fold changes"}, {"measurement": "Relative mRNA expression of Ibabp in ileum", "setting": "[2]; TPHP-L: 10 mg/kg, 35 d", "value": "0.79 fold changes and 0.87 fold changes and 0.75 fold changes"}, {"measurement": "Relative mRNA expression of Ostα in ileum", "setting": "[2]; TPHP-L: 10 mg/kg, 35 d", "value": "0.81 fold changes and 0.96 fold changes and 0.82 fold changes"}, {"measurement": "Relative mRNA expression of Shp in ileum", "setting": "[2]; TPHP-L: 10 mg/kg, 35 d", "value": "0.33 fold changes and 0.38 fold changes and 0.36 fold changes"}, {"measurement": "Relative mRNA expression of Smpd2 in ileum", "setting": "[2]; TPHP-L: 10 mg/kg, 35 d", "value": "1.01 fold changes and 1.00 fold changes and 1.07 fold changes"}, {"measurement": "Relative mRNA expression of Smpd3 in ileum", "setting": "[2]; TPHP-L: 10 mg/kg, 35 d", "value": "1.11 fold changes and 1.07 fold changes and 1.10 fold changes"}, {"measurement": "Relative mRNA expression of Smpd4 in ileum", "setting": "[2]; TPHP-L: 10 mg/kg, 35 d", "value": "0.84 fold changes and 0.96 fold changes"}, {"measurement": "Relative mRNA expression of Sptlc1 in ileum", "setting": "[2]; TPHP-L: 10 mg/kg, 35 d", "value": "0.87 fold changes and 1.15 fold changes and 0.75 fold changes"}, {"measurement": "Relative mRNA expression of Sptlc2 in ileum", "setting": "[2]; TPHP-L: 10 mg/kg, 35 d", "value": "0.89 fold changes and 1.15 fold changes and 1.13 fold changes"}, {"measurement": "Expression of ceramide synthesis genes in the ileum vs control (in words)", "setting": "[2]; after TPHP exposure", "value": "not significantly different"}]}]}
